These results are taken from patent publication US6492366B1, “Cyano-indole serotonin-reuptake inhibitor compound” (Les Laboratoires Servier, priority 1999, dated 2002).

One test addresses T1, serotonin-reuptake sites (Rattus norvegicus, UniProt P31652).
T1 construct: The membranes are prepared from rat frontal cortex; from tissue; host or cells: rat frontal cortex membranes
Description: Determination of affinity for serotonin-reuptake sites in the rat ([3H]-paroxetine competition). Type of test: binding. Conditions: rat frontal cortex membranes, 0.25 nM [3H]-paroxetine, 2 hours at 25° C. The method, then:
Determination of Affinity for Serotonin-reuptake Sites in the Rat The affinity of the compounds of the invention was determined by competition experiments with [^3H]-paroxetine. The membranes are prepared from rat frontal cortex and are incubated in triplicate with 0.25 nM [^3H]-paroxetine and the cold ligand in a final volume of 0.4 ml, for 2 hours at 25° C. The incubation buffer contains 50 mM TRIS-HCl (pH 7.4), 120 mM NaCl and 5 mM KCl. Non-specific binding is determined using 10 μM citalopram. At the end of the incubation, the mixture is filtered through filters and washed three times with 5 ml of cooled buffer. The radioactivity retained on the filters is determined by liquid scintillation counting. The binding isotherms are analysed by non-linear regression to determine the IC50 values. The latter are converted into a dissociation constant (Ki) using the Cheng-Prusoff equation: Ki=IC50/[…] wherein L is the concentration of [^3H]-paroxetine and Kd is the dissociation constant (0.13 nM).

Test [1] concerns spontaneous marble-burying behaviour of mice. The test is described as follows: Marble-burying test in mice. It is filed as in vivo. Particulars: Mus musculus, 0.5 h; male NMRI mice, 24 marbles, 30 minutes' free exploration; read-out: ED50 (Efficacy dose 50), inhibition of marble-burying. An excerpt: Marble-burying Test in Mice This test enables evaluation of the capacity of pharmacological agents to inhibit the spontaneous marble-burying behaviour of mice, the inhibition being predictive of antidepressant and/or anti-impulsive action. Male mice of the NMRI strain weighing from 20 to 25 g on the day of the experiment are placed individually in Macrolon boxes (30×18×19 cm) containing 5 cm of sawdust and covered with a perforated plexiglass plate. Twenty four “tiger's eye” glass marbles are evenly distributed on the sawdust at the periphery of the box. At the end of 30 minutes' free exploration, the animals are removed from the box and the number of buried marbles is counted.

T1 sequence (P31652 whole entry): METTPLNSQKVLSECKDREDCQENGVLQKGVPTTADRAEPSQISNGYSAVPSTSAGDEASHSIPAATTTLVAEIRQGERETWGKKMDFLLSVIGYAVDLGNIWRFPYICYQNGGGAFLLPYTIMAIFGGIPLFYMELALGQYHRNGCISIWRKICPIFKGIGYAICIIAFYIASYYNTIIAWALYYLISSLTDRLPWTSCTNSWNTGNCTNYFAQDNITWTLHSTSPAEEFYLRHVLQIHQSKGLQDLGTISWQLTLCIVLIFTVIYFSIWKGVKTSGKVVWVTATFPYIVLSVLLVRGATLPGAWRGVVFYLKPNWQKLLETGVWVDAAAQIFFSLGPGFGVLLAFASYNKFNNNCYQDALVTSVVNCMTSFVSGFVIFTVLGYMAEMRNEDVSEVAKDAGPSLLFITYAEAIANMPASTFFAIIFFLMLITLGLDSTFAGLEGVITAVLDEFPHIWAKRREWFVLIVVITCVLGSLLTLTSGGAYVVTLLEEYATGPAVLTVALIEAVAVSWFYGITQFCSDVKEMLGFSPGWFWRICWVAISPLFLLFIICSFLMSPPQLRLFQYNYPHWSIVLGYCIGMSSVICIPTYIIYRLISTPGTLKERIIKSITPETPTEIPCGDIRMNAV

Usually Ki stands for the equilibrium dissociation constant of an inhibitor or competing ligand from its target. A high value points to a looser hold on the target. What is called ED50 is the midpoint of the dose-response relation. In turn, `Cl.N#Cc1ccc2[nH]cc(CC3CCN(CCc4cc5c(cc4Cl)NC(=O)C5)C3)c2c1` (stereo not drawn) [Example 6, 3-({1-[2-(6-Chloro-2-oxo-2,3-dihydro-1H-indol-5-yl)ethyl]-3-pyrrolidinyl}methyl)-1H-indole-5-carbonitrile Hydrochloride] gave a Ki at serotonin-reuptake sites of 0.4 nM. For the same molecule, in test [1], the ED50 worked out at 3.8 mg/kg.
Take `Cl.N#Cc1ccc2[nH]cc(CC3CCN(CCc4ccc5c(c4)CC(=O)N5)C3)c2c1` (stereo not drawn) [Example 7, 3-({1-[2-(2-Oxo-2,3-dihydro-1H-indol-5-yl)ethyl]-3-pyrrolidinyl}-methyl)-1H-indole-5-carbonitrile Hydrochloride]: the ED50 in test [1] amounted to 1.5 mg/kg.
